According to ChEMBL document CHEMBL5726774, “Triterpenoids with HIV maturation inhibitory activity” (2019):

Columns and labels:
[1] = (§1) HIV Cell Culture Assay: MT-2 cells and 293T cells were obtained from the NIH AIDS Research and Reference Reagent Program. MT-2 cells were propagated in RPMI 1640 media supplemented with 10% heat-inactivated fetal bovine serum, […]. The 293T cells were propagated in DMEM media supplemented with 10% heat-inactivated fetal bovine serum (FBS), 100 units/mL penicillin G and 100 μg/mL streptomycin. The proviral DNA clone of NL4-3 was obtained from the NIH AIDS Research and Reference Reagent Program. A recombinant NL4-3 virus, in which a section of the nef gene from NL4-3 was replaced with the Renilla luciferase gene, was used as a reference virus. In addition, residue Gag P373 was converted to P373S. Briefly, the recombinant virus was prepared by transfection of the altered proviral clone of NL4-3. Transfections were performed in 293T cells using LipofectAMINE PLUS from Invitrogen (Carlsbad, Calif.), according to manufacturer's instruction. The virus was titered in MT-2 cells using luciferase enzyme activity as a marker. Luciferase was quantitated using the Dual Luciferase kit from Promega (Madison, Wis.), with modifications to the manufacturer's protocol. The diluted Passive Lysis solution was pre-mixed with the re-suspended Luciferase Assay Reagent and the re-suspended Stop & Glo Substrate (2:1:1 ratio). Fifty (50) μL of the mixture was added to each aspirated well on assay plates and luciferase activity was measured immediately on a Wallac TriLux (Perkin-Elmer). Antiviral activities of inhibitors toward the recombinant virus were quantified by measuring luciferase activity in cells infected for 4-5 days with NLRluc recombinants in the presence serial dilutions of the inhibitor.; assay type: cell-based
[2] = as §1; assay type: cell-based; remark: listed apart in the source

SMILES	EC50 [1] [nM]	EC50 [2] [nM]
C=C(C)[C@@H]1CC[C@]2(NCC[C@]3(O)CC[C@H](S(C)(=O)=O)CC3)CC[C@]3(C)[C@H](CC[C@@H]4[C@@]5(C)CC=C(C6=CC[C@](CF)(C(=O)O)CC6)C(C)(C)[C@@H]5CC[C@]43C)[C@@H]12	< 50	> 50
C=C(C)[C@@H]1CC[C@]2(NCCN3CCS(=O)(=O)CC3)CC[C@]3(C)[C@H](CC[C@@H]4[C@@]5(C)CC=C(C6=CC[C@@](CF)(OC=O)CC6)C(C)(C)[C@@H]5CC[C@]43C)[C@@H]12	3	170
C=C(C)[C@@H]1CC[C@]2(NCC[C@]3(O)CC[C@@H](S(C)(=O)=O)CC3)CC[C@]3(C)[C@H](CC[C@@H]4[C@@]5(C)CC=C(C6=CC[C@@](CF)(C(=O)O)CC6)C(C)(C)[C@@H]5CC[C@]43C)[C@@H]12	< 50	> 50
C=C(C)[C@@H]1CC[C@]2(NCCN3CCS(=O)(=O)CC3)CC[C@]3(C)[C@H](CC[C@@H]4[C@@]5(C)CC=C(C6=CCC(C)(OC=O)CC6)C(C)(C)[C@@H]5CC[C@]43C)[C@@H]12 (some centres not stated)	2	
C=C(C)[C@@H]1CC[C@]2(NCCC3(O)COC3)CC[C@]3(C)[C@H](CC[C@@H]4[C@@]5(C)CC=C(C6=CC[C@](CF)(C(=O)O)CC6)C(C)(C)[C@@H]5CC[C@]43C)[C@@H]12	< 50	> 50
CC(C)[C@@H]1CC[C@]2(NCCN3CCS(=O)(=O)CC3)CC[C@]3(C)[C@H](CC[C@@H]4[C@@]5(C)CC=C(C6CCC(CF)(C(=O)O)CC6)C(C)(C)[C@@H]5CC[C@]43C)[C@@H]12 (some centres not stated)	< 50	> 50
C=C(C)[C@@H]1CC[C@]2(NC(CN3CCS(=O)(=O)CC3)C(F)(F)F)CC[C@]3(C)[C@H](CC[C@@H]4[C@@]5(C)CC=C(C6=CC[C@](CF)(C(=O)O)CC6)C(C)(C)[C@@H]5CC[C@]43C)[C@@H]12 (some centres not stated)	> 50	> 50
C=C(C)[C@@H]1CC[C@]2(NCCN3CCS(=O)(=O)CC3C(=O)OCC)CC[C@]3(C)[C@H](CC[C@@H]4[C@@]5(C)CC=C(C6=CC[C@@](CF)(C(=O)O)CC6)C(C)(C)[C@@H]5CC[C@]43C)[C@@H]12 (some centres not stated)	< 50	< 50
C=C(C)[C@@H]1CC[C@]2(NCCN3CCS(=O)(=O)CC3)CC[C@]3(C)[C@H](CC[C@@H]4[C@@]5(C)CC=C(C6=CCC(CF)(OC=O)CC6)C(C)(C)[C@@H]5CC[C@]43C)[C@@H]12 (some centres not stated)	2	210
C=C(C)[C@@H]1CC[C@]2(NCCC(O)(C3CC3)C3CC3)CC[C@]3(C)[C@H](CC[C@@H]4[C@@]5(C)CC=C(C6=CC[C@](CF)(C(=O)OCc7ccccc7)CC6)C(C)(C)[C@@H]5CC[C@]43C)[C@@H]12	< 50	> 50
C=C(C)[C@@H]1CC[C@]2(NCCN3CCC(S(C)(=O)=O)CC3)CC[C@]3(C)[C@H](CC[C@@H]4[C@@]5(C)CC=C(C6=CCC(F)(OC=O)CC6)C(C)(C)[C@@H]5CC[C@]43C)[C@@H]12 (some centres not stated)	4	
C=C(C)[C@@H]1CC[C@]2(NCCN3CCS(=O)(=O)CC(C)C3)CC[C@]3(C)[C@H](CC[C@@H]4[C@@]5(C)CC=C(C6=CC[C@](CF)(OC=O)CC6)C(C)(C)[C@@H]5CC[C@]43C)[C@@H]12 (some centres not stated)	< 50	> 50
C=C(C)[C@@H]1CC[C@]2(NCCN3CCS(=O)(=O)CC3)CC[C@]3(C)[C@H](CC[C@@H]4[C@@]5(C)CC=C(C6=CC[C@](CF)(OC=O)CC6)C(C)(C)[C@@H]5CC[C@]43C)[C@@H]12	2	780
C=C(C)[C@@H]1CC[C@]2(NCCN3CCS(=O)(=O)CC(C)C3)CC[C@]3(C)[C@H](CC[C@@H]4[C@@]5(C)CC=C(C6=CC[C@@](CF)(OC=O)CC6)C(C)(C)[C@@H]5CC[C@]43C)[C@@H]12 (some centres not stated)	< 50	> 50
C=C(C)[C@@H]1CC[C@]2(NCCN3CC(C)S(=O)(=O)C(C)C3)CC[C@]3(C)[C@H](CC[C@@H]4[C@@]5(C)CC=C(C6=CC[C@](CF)(OC=O)CC6)C(C)(C)[C@@H]5CC[C@]43C)[C@@H]12 (some centres not stated)	< 50	> 50
C=C(C)[C@@H]1CC[C@]2(NCCN3CC(C)S(=O)(=O)C(C)C3)CC[C@]3(C)[C@H](CC[C@@H]4[C@@]5(C)CC=C(C6=CC[C@@](CF)(OC=O)CC6)C(C)(C)[C@@H]5CC[C@]43C)[C@@H]12 (some centres not stated)	< 50	> 50
C=C(C)[C@@H]1CC[C@]2(NCCC3(O)COC3)CC[C@]3(C)[C@H](CC[C@@H]4[C@@]5(C)CC=C(C6=CC[C@@](CF)(C(=O)O)CC6)C(C)(C)[C@@H]5CC[C@]43C)[C@@H]12	< 50	> 50
